Source: patent US20250171744A1, “METHODS OF REPROGRAMMING SOMATIC CELLS AND MATERIALS RELATED THERETO” (CITY OF HOPE, priority 2019, published 2025)
Entries after “also recorded” stand apart in the source; their conditions may differ.

Tests used:
Format in all cases: cell-based, human
[1] = system: MTX/PTX treated, SSEA4 positive cells; assay: Neural differentiation (FIG. 30); details: neural differentiation medium, laminin coated plates, 10-15-days
Experimental: For neural differentiation, MTX/PTX treated, SSEA4 positive cells were initially grown onto Matrigel-coated 6-well plates in mTeSR1 medium. To induce neural differentiation, the cells were dissociated and passaged onto laminin (20 μg ml−1; Sigma-Aldrich, USA) coated plates and grown in Neurobasal medium (Thermo Fisher Scientific, USA) or RPMI1640 medium (Gibco, USA) for 10-15-days at 37° C./5% CO2. The medium was supplemented with 1% serum free B-27 (Gibco, USA), 1% Glutamax (Gibco, USA), 1% NEAA (Gibco, USA), and 1% penicillin/streptomycin (Gibco, USA).

HF57 cells [2] = assay: Histone methylation levels (FIG. 19); details: vs control
Experimental: (§1) Calculation of methylation level (based on OD values as shown on y-axis) was performed according to manufacturer's instructions. Representative histogram from three independent experiments are shown. All data are presented as the mean±standard error (SE) of triplicate measurements. *P<0.05, ***P<0.001.

HEK293T cells = assay: Histone methylation levels (FIG. 19); details: vs control
Experimental: as §1

293T cells = assay: Global DNA methylation, 5mC ELISA (FIG. 18); details: 500 nM MTX, 1 μM PTX; 7-days; vs untreated cells
Experimental: Equal amount of DNA (100 ng) was analyzed with 5mC enzyme-linked immunosorbent assay (ELISA) (EpiGentek). […] Error bars represent the standard error for at least three independent experiments and three technical replicates.
Global DNA methylation measurement Global 5-methylcytosine (5-mC) levels were quantified using the MethylFlash Methylated DNA Quantification Kits (Epigentek, Farmingdale, NY, USA). The DNA concentration was determined using the Qubit Assay (Thermo Fisher Scientific) according to the manufacturer's protocol. Briefly, 100 ng of DNA was used for incubation with both capture and detection antibodies using MethylFlash Methylated DNA Quantification Kit (Colorimetric) from Epigentek. Subsequently, measurements of the absorbance of the sample at 450 nm in a microplate spectrophotometer (BioTek Instruments, Winooski, VT, USA) were performed with the percentage of the whole genome 5-mC calculation according to manufacturer's instructions. Genomic methylation levels in study samples were expressed as percentage of 5-mC.
MTX and PTX are antifolates that inhibit enzymes (particularly thymidylate synthase and dihydrofolate reductase) involved in folate metabolism and purine and pyrimidine synthesis (100-103). […] Equal amount of gDNA (100 ng) was analyzed with 5mC enzyme-linked immunosorbent assay (ELISA) (EpiGentek).

HF57 cells [3] = assay: qRT-PCR relative transcript levels (FIG. 21B, FIG. 32); details: for transcripts level of DNMT1 / transcripts level of MTHFR / transcripts level of MTR / relative transcripts level of Nanog / relative transcripts level of Oct4 / relative transcripts level of Sox2: FIG. 21B; for relative transcripts level of Nanog / relative transcripts level of Oct4 / relative transcripts level of Sox2: vs control cells
Experimental: Also, the cells were treated with PTX for 2-days only. Since exposure time of PTX or MTX is very critical for gene expression or other genetic changes, the expression of ANOS could be higher after prolonged exposure to PTX.
To validate microarray results, quantitative 2-step RT-PCR was performed. One microgram of total RNA was reverse transcribed to first-strand cDNA with the Qiagen cDNA Synthesis Kit (Qiagen), and this cDNA was subsequently used as a template for quantitative PCR with gene-specific primers. The ubiquitous β-actin gene served as a control for constitutive gene expression. The quantitative RT-PCR (qRT-PCR) reactions were performed using Power Sybr Green PCR Master Mix (Thermo Fisher Scientific) on a CFX96 Touch Real-Time PCR Detection System (Bio-Rad, Hercules, CA, USA). Relative expression levels (2^−ΔCt) were calculated according to the Livak and Schmittgen method (40). Expression levels of each gene were compared with the expression level of actin.
The quiescent nature of the MTX and PTX cells and the association of demethylation with the generation of induced pluripotent stem cells led to examining markers for stem cells formation. The 293T and HF57 cells were grown on 5% dialyzed FBS DMEM medium. DMEM without methionine, DMEM with 15 mg/L (half dose) and DMEM with 30 mg/L (regular DMEM) were used to grow the cells. Once the cells attained 70% confluency, HF57 were treated with 1-μM MTX or PTX and HEK293T were treated with 500 nM MTX or 1 μM PTX. The cells were treated with MTX or PTX for 7-days, and subsequently the medium was replaced with N2B27 medium (Thermo Fisher Scientific, USA). The cells were grown in N2B27 medium for 15 days which supported undifferentiated growth of human embryonic stem cells. Subsequently, these cells were maintained in MTeSR medium supplemented with sodium hypoxanthine and thymidine (HT) for 15 or more days. These conditions supported prolonged self-renewal of putative pluripotent cells, and they were able to form colonies and later embryoid bodies in vitro. Subsequently, the cells were assessed for markers linked to stem cells. Transcriptomics and qRT-PCR were performed to examine whether ES cell marker genes were expressed in these cells. Both MTX and PTX treated cells expressed the marker genes (FIGS. 20-21 and 25-26). […] To authenticate these findings, two key pluripotency markers (SSEA-4 and TRA 1-60) were examined using immunofluorescence.

| Structure (SMILES) | differentiation into neural cells [1] | Dimethyl H3-K9 methylation (HF57 cells [2]) | global histone H3-K4 methylation (HF57 cells [2]) | Dimethyl H3-K9 methylation (HEK293T cells) | global histone H3-K4 methylation (HEK293T cells) | global DNA methylation (5mC content) (293T cells) | transcripts level of DNMT1 (HF57 cells [3]) | transcripts level of MTHFR (HF57 cells [3]) | transcripts level of MTR (HF57 cells [3]) | relative transcripts level of Nanog (HF57 cells [3]) | relative transcripts level of Oct4 (HF57 cells [3]) | relative transcripts level of Sox2 (HF57 cells [3]) | expression of ANKRD1 (HF57 cells [3]; treated for 2-days) | expression of ANOS (HF57 cells [3]; treated for 2-days) |
| --- | --- | --- | --- | --- | --- | --- | --- | --- | --- | --- | --- | --- | --- | --- |
| CN(Cc1cnc2nc(N)nc(N)c2n1)c1ccc(C(=O)N[C@@H](CCC(=O)O)C(=O)O)cc1 [MTX, methotrexate] | can differentiate into neural cells | significantly reduced | significantly reduced | significantly reduced | significantly reduced | significantly lower levels of DNA methylation; also recorded: significant reduction in global DNA methylation | significantly reduced | significantly reduced | significantly reduced | significantly higher | significantly higher | significantly higher |  |  |
| Nc1nc2[nH]cc(CCc3ccc(C(=O)N[C@@H](CCC(=O)O)C(=O)O)cc3)c2c(=O)[nH]1 [PTX, pemetrexed] | can differentiate into neural cells | significantly reduced | significantly reduced | significantly reduced | significantly reduced | significantly lower levels of DNA methylation; also recorded: significant reduction in global DNA methylation | significantly reduced | significantly reduced | significantly reduced | significantly higher | significantly higher | significantly higher | significantly higher than control | significantly higher than control |
